From PMC12797170, “Potent Competitive Inhibitors of Ecto-5′-nucleotidase (CD73) based on 6‑(Het)aryl-7-deazapurine Ribonucleoside 5′‑O‑Bisphosphonates” (ACS Pharmacology & Translational Science, 2025)
≈ marks a conversion by molar mass, not a printed value.

Assays:
[1] = Plasma protein binding, equilibrium dialysis, human plasma; type: in vitro ADME; details: undiluted plasma
Experimental: (§1) Plasma protein binding of the investigated compounds was determined using equilibrium dialysis in single-use Rapid Equilibrium Dialysis devices with an 8 kDa molecular weight cutoff (Thermo Fisher Scientific), following the manufacturer’s protocol. In brief, 50 μL of undiluted human plasma (Biowest), spiked with the test compound at a final concentration of 100 μM, was added to the sample chamber, while 300 μL of phosphate-buffered saline (PBS) was placed in the buffer chamber. Devices were incubated for 4 h at 37 °C with gentle shaking.
(§2) After dialysis, 7.5 μL aliquots from both the plasma and buffer chambers were transferred directly into wells of a 384-well plate. To equalize the matrices for downstream processing, 7.5 μL of PBS was added to each plasma aliquot, and 7.5 μL of plasma was added to each buffer aliquot. Proteins were precipitated by adding four volumes of ice-cold methanol to each well, followed by thorough mixing and incubation at – 20 °C for 30 min. Plates were then stored overnight at 8 °C. Prior to analysis, the plate was centrifuged at 2,000 × g for 20 min at 8 °C. […] The fraction of unbound compound was calculated using the following equations: %Free=c(bufferchamber)/c(plasmachamber)*100% %Bound=100%−%Free

[2] = Plasma protein binding, mouse plasma; type: in vitro ADME; details: mouse, plasma, mouse plasma protein binding; read-out: PPB (m) (converted)
Experimental: as §1, §2

in vitro [3] = details: human, plasma
[4] = Microsomal stability assay, human liver microsomes; type: in vitro ADME; details: for Mics (hu) comp remaining 60 min: 10 μM; for microsomal CLint at 10 µM: pooled liver microsomes, pH 7.4, read-out: Mics (hu) CLint
[5] = Microsomal stability assay, mouse liver microsomes; type: in vitro ADME; details: for microsomal CLint at 10 µM: pooled liver microsomes, pH 7.4, read-out: Mics (m) CLint; for Mics (m) comp remaining 60 min: 10 μM
CCRF-CEM = assay: In vitro cytotoxic activity; type: cell-based; details: Homo sapiens
Experimental: (§3) All the compounds were also tested for their in vitro cytotoxic activity on a small panel of four cancer cell lines (CCRF-CEM, HepG2, HeLa S3, HL-60) and nonmalignant human dermal fibroblasts (NHDF).

HeLa S3 = assay: In vitro cytotoxic activity; type: cell-based; details: Homo sapiens
Experimental: as §3

HepG2 = assay: In vitro cytotoxic activity; type: cell-based; details: Homo sapiens
Experimental: as §3

HL-60 = assay: In vitro cytotoxic activity; type: cell-based; details: Homo sapiens
Experimental: as §3

[6] = test system: nonmalignant human dermal fibroblasts (NHDF); assay: In vitro cytotoxic activity; type: cell-based
Experimental: as §3

[7] = molecular target: T1, recombinant human CD73 (hCD73) (Homo sapiens, UniProt P21589); assay: CD73 activity assay on recombinant human CD73; type: biochemical; details: ΔGexp = RT ln Ki
T1 sequence (P21589 27-574): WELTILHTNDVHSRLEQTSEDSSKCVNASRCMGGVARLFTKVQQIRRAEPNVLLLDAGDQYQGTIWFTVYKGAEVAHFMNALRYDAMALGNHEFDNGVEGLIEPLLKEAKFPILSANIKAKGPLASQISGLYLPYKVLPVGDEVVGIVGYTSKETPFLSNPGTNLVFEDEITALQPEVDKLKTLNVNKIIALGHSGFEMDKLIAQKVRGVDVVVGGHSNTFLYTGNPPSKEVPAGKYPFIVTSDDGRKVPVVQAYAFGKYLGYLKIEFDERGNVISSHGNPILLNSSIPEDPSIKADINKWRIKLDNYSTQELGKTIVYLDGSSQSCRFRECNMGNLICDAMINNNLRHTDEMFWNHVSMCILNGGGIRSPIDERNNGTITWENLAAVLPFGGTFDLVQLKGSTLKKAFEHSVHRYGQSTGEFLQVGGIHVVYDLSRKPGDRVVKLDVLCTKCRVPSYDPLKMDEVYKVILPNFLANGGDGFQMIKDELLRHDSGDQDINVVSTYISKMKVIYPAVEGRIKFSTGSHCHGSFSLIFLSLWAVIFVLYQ

[8] = Kinetic solubility in PBS; type: physicochemical; details: phosphate-buffered saline, pH 7.4, aqueous buffer, kinetic from dmso stock
Experimental: Test compounds were prepared as 10 mM stock solutions in DMSO and diluted in phosphate-buffered saline (PBS, pH 7.4) to a 100 μM solution, which was then aliquoted in duplicate. The duplicate samples were incubated in Multiscreen PCF Filter Plates (Merck Millipore) with sealed bottom at room temperature on a shaker for 2 h to allow equilibration. Following incubation, the samples were centrifuged into nonsterile, flat-bottom 96-well plates at 2,200 RCF for 12 min. Supernatants were then diluted 1:99 in a solution of 50% acetonitrile containing 0.1% DMSO. The diluted samples were transferred to 384-well Echo plates, which contained prespotted calibration standards prepared by Echo transfer of 10 mM and 1 mM DMSO stock solutions, resulting in calibration points ranging from 0.05 to 4 μM. Samples and standards were subsequently analyzed by Echo-MS.

in vitro [9] = details: mouse, plasma
[10] = human plasma protein binding, read-out: PPB (hu) (converted)

fraction unbound at 4 h, 100 µM [1, 10] | fraction unbound at 4 h, 100 µM [2] | half-life at 10 µM (in vitro [3]) [h] | Mics (hu) comp remaining 60 min [4] [%] | microsomal CLint at 10 µM [4] [µL/min/mg] | microsomal CLint at 10 µM [5] [µL/min/mg] | dG_exp, experimental binding free energy [7] | solubility at 2 h [8] [µM] | half-life at 10 µM (in vitro [9]) [h] | Mics (m) comp remaining 60 min [5] [%] | fraction unbound at 4 h, 100 µM ([1]; Tables 1 and 3, human plasma as printed in footnote, read-out: fup, fraction unbound in human plasma) | Structure (SMILES) | IC50 (CCRF-CEM) [µM] | IC50 (HeLa S3) [µM] | IC50 (HepG2) [µM] | IC50 (HL-60) [µM] | IC50 [6] [µM]
0.069 | 0.816 | > 2 | 100 | < 1 | 1 | –13.2 kcal/mol | 89 (≈ 43.5 µg/mL) | > 2 | 96 |  | Cc1nc(-c2ccco2)c2ccn([C@@H]3O[C@H](COP(=O)(O)CP(=O)(O)O)[C@@H](O)[C@H]3O)c2n1 [18E.1] | > 10 | > 10 | > 10 | > 10 | > 10
≤ 0.01 | 0.112 | > 2 | 106 | < 1 | 3 | –12.7 kcal/mol | 84 (≈ 47.4 µg/mL) | > 2 |  | 0.11 | CNc1nc(-c2ccc3ccccc3c2)c2ccn([C@@H]3O[C@H](COP(=O)(O)CP(=O)(O)O)[C@@H](O)[C@H]3O)c2n1 [22G.7, [(5-{[2-(N-Methylamino)-4-(naphthalen-2-yl)-7H-pyrrolo[2,3-d]pyrimidin-7-yl]-β-D-ribofuranosyl}oxy)phosphonomethyl]phosphonic Acid] | > 10 | > 10 | > 10 | 8.1 | > 10
0.058 | 0.391 | > 2 | 100 | < 1 | 2 | –13.9 kcal/mol | 87 (≈ 47 µg/mL) | > 2 | 97 |  | Nc1nc(-c2cc3ccccc3o2)c2ccn([C@@H]3O[C@H](COP(=O)(O)CP(=O)(O)O)[C@@H](O)[C@H]3O)c2n1 [11C.8] | > 10 | > 10 | > 10 | > 10 | > 10
0.008 | 0.286 | > 2 | 107 | < 1 | < 1 | –14.3 kcal/mol | 76 (≈ 41.3 µg/mL) | > 2 |  |  | O=P(O)(O)CP(=O)(O)OC[C@H]1O[C@@H](n2ccc3c(-c4cc5ccccc5o4)nc(F)nc32)[C@H](O)[C@@H]1O [14D.8] | > 10 | > 10 | > 10 | > 10 | > 10
0.045 | 0.664 | > 2 | 103 | < 1 | 1 | –13.4 kcal/mol | 80 (≈ 39.5 µg/mL) | > 2 | 96 |  | O=P(O)(O)CP(=O)(O)OC[C@H]1O[C@@H](n2ccc3c(-c4ccco4)nc(F)nc32)[C@H](O)[C@@H]1O [14D.1, [(5-{[2-Fluoro-4-(furan-2-yl)-7H-pyrrolo[2,3-d]pyrimidin-7-yl]-β-D-ribofuranosyl}oxy)phosphonomethyl]phosphonic Acid] | > 10 | > 10 | > 10 | > 10 | > 10

More lines, now with the values behind:

Structure (SMILES) | fraction unbound at 4 h, 100 µM [1, 10] | fraction unbound at 4 h, 100 µM [2] | half-life at 10 µM (in vitro [3]) [h] | Mics (hu) comp remaining 60 min [4] [%] | microsomal CLint at 10 µM [4] [µL/min/mg] | microsomal CLint at 10 µM [5] [µL/min/mg] | dG_exp, experimental binding free energy [7] | solubility at 2 h [8] [µM] | half-life at 10 µM (in vitro [9]) [h] | Mics (m) comp remaining 60 min [5] [%] | fraction unbound at 4 h, 100 µM ([1]; Tables 1 and 3, human plasma as printed in footnote, read-out: fup, fraction unbound in human plasma) | IC50 (CCRF-CEM) [µM] | IC50 (HeLa S3) [µM] | IC50 (HepG2) [µM] | IC50 (HL-60) [µM] | IC50 [6] [µM]
Nc1ccc(-c2nc(Cl)nc3c2ccn3[C@@H]2O[C@H](COP(=O)(O)CP(=O)(O)O)[C@@H](O)[C@H]2O)c2ccccc12 [7B.33] | ≤ 0.01 | 0.374 | > 2 | 109 | < 2 | < 2 | –14.1 kcal/mol | > 100 | > 2 |  |  | 9.6 | 8.7 | 7.9 | 9.1 | 8.8
Nc1nc(-c2ccc3ccccc3c2)c2ccn([C@@H]3O[C@H](COP(=O)(O)CP(=O)(O)O)[C@@H](O)[C@H]3O)c2n1 [11C.7] | 0.037 | 0.305 | > 2 | 100 | < 1 | 2 | –13.8 kcal/mol | > 100 | > 2 | 97 |  | > 10 | > 10 | > 10 | > 10 | > 10
O=P(O)(O)CP(=O)(O)OC[C@H]1O[C@@H](n2ccc3c(-c4ccc5c(c4)CCO5)ncnc32)[C@H](O)[C@@H]1O [4A.14] | 0.062 | 0.547 | > 2 | 112 | < 1 | 3 | –12.9 kcal/mol | > 100 | > 2 | 94 |  | > 10 | > 10 | 6.3 | 6.6 | 5.6
O=P(O)(O)CP(=O)(O)OC[C@H]1O[C@@H](n2ccc3c(-c4cccc5ccoc45)ncnc32)[C@H](O)[C@@H]1O [4A.15] | 0.036 | 0.542 | > 2 | 118 | < 1 | < 1 | –13.4 kcal/mol | 76 (≈ 39.9 µg/mL) | > 2 | 102 |  | > 10 | > 10 | 8.7 | 8.6 | 5.7
Nc1nc(-c2ccco2)c2ccn([C@@H]3O[C@H](COP(=O)(O)CP(=O)(O)O)[C@@H](O)[C@H]3O)c2n1 [11C.1, [(5-{[2-Amino-4-(furan-2-yl)-7H-pyrrolo[2,3-d]pyrimidin-7-yl]-β-D-ribofuranosyl}oxy)phosphonomethyl]phosphonic Acid] | 0.224 | 0.622 | > 2 | 107 | < 1 | < 1 | –13.1 kcal/mol | > 100 | > 2 | 103 |  | > 10 | > 10 | > 10 | > 10 | > 10
